{
  "source": "ChEMBL document CHEMBL2331525",
  "about": "“Nudibaccatumone, a trimer comprising a phenylpropanoid and two sesquiterpene moieties from Piper nudibaccatum” (J Nat Prod, 2013)",
  "key": {"A549 [1]": {"test_system": "A549", "experiment": "Cytotoxicity against human A549 cells by SRB assay", "format": "functional, cell-based"}, "K562 [2]": {"test_system": "K562", "experiment": "Cytotoxicity against human K562 cells by MTT assay", "format": "functional, cell-based"}, "Staphylococcus aureus [3]": {"test_system": "Staphylococcus aureus", "experiment": "Antimicrobial activity against Staphylococcus aureus at 100 uM by microdilution method", "format": "functional, organism-based"}, "Candida albicans [4]": {"test_system": "Candida albicans", "experiment": "Antimicrobial activity against Candida albicans at 100 uM by microdilution method", "format": "functional, organism-based"}, "K562 [5]": {"test_system": "K562", "experiment": "Cytotoxicity against human K562 cells at 100 uM by MTT assay", "format": "functional, cell-based"}, "A549 [6]": {"test_system": "A549", "experiment": "Cytotoxicity against human A549 cells at 100 uM by SRB assay", "format": "functional, cell-based"}, "Escherichia coli [7]": {"test_system": "Escherichia coli", "experiment": "Antimicrobial activity against Escherichia coli at 100 uM by microdilution method", "format": "functional, organism-based"}, "Candida albicans [8]": {"test_system": "Candida albicans", "experiment": "Antimicrobial activity against Candida albicans by microdilution method", "format": "functional, organism-based"}, "Escherichia coli [9]": {"test_system": "Escherichia coli", "experiment": "Antimicrobial activity against Escherichia coli by microdilution method", "format": "functional, organism-based"}, "Staphylococcus aureus [10]": {"test_system": "Staphylococcus aureus", "experiment": "Antimicrobial activity against Staphylococcus aureus by microdilution method", "format": "functional, organism-based"}},
  "note": "Active and inactive are the calls of the source. The calls are words filed in the database; no cut-off is given here.",
  "data": [
    {"molecule": "COc1cccc2c1C(=O)c1c(O)c3c(c(O)c1C2=O)C[C@@](O)(C(=O)CO)C[C@@H]3O[C@H]1C[C@H](N)[C@H](O)[C@H](C)O1", "note": "[DOXORUBICIN]", "values": [
      {"measurement": "IC50", "setting": "A549 [1]", "result": 49, "unit": "nM"},
      {"measurement": "IC50", "setting": "K562 [2]", "result": 280, "unit": "nM"}
    ]},
    {"molecule": "C/C1=C\\CC[C@]2(C)[C@@H]3C(=O)C(=O)[C@@H](C=C3/C=C/C[C@@]3(C)CC[C@H]4C3=C[C@H](C(C)(C)O)CC[C@H]4C)[C@H]2[C@H]2[C@H](CC1)C2(C)C", "values": [
      {"measurement": "Activity", "setting": "Staphylococcus aureus [3]", "result": "inactive"},
      {"measurement": "Activity", "setting": "Candida albicans [4]", "result": "inactive"},
      {"measurement": "Activity", "setting": "K562 [5]", "result": "inactive"},
      {"measurement": "Activity", "setting": "A549 [6]", "result": "inactive"},
      {"measurement": "Activity", "setting": "Escherichia coli [7]", "result": "inactive"}
    ]},
    {"molecule": "NYSTATIN", "values": [
      {"measurement": "MIC", "setting": "Candida albicans [8]", "result": 1, "unit": "µg/mL"}
    ]},
    {"molecule": "GENTAMICIN", "values": [
      {"measurement": "MIC", "setting": "Escherichia coli [9]", "result": 1.2, "unit": "µg/mL"},
      {"measurement": "MIC", "setting": "Staphylococcus aureus [10]", "result": 0.05, "unit": "µg/mL"}
    ]}
  ]
}
